assay: recombinant barcode read abundance after kanamycin selection (control-corrected) (log10(CPM+1)); higher = more efficient recombination; sequences stand for … in AGTGCAGAGAAAATCGGCCAGTTTTCTCTGCCTGCAGTCCGCATGCCGT…AGATTTATGCAGCGGACTGCCTTTCTCCCAAAGTGATAAACCGGACAGTATCATGGACCGGTTTTCCCGGTAATCCGTATTTGCAAGGTTGGTTTCACT; site = the 11-nt target
Outline: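 In E. coli, a pooled library matched targets to IS621 bridge RNA target-binding loops and was introduced alongside a donor plasmid. Cells went onto chloramphenicol/ampicillin/kanamycin with 0.1 mM IPTG or onto chloramphenicol/ampicillin LB agar as control, in duplicate. Recombination efficiency, from recombinant-junction barcodes as counts per million, is averaged and control-corrected. It is reported as log10(CPM+1).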
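Also: IS621 recombinase and bridge RNA in Escherichia coli cells.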

Row | Sequence | recombinant barcode read abundance (log10)
1 | GCGGGGTCTTGGGTTCTAACCTGTTGCCT (site GCGGGGTCTAG) | 1.2
2 | TCGTACCCTTGGGTTCTAACCTGTTGCGA (site TCGAACCCTTC) | 0.256
3 | ACCTACTCTTGGGTTCTAACCTGTTGCTT (site ACCTACTCTAA) | 1.33
4 | CTCTAGACTTGGGTTCTAACCTGTTGCCA (site CTCTAGACTTG) | 0.69
5 | GCTGTATCTTGGGTTCTAACCTGTTGCCT (site ACTGTATCTAG) | 0.288
6 | TGTCAATCTTGGGTTCTAACCTGTTGCCT (site TGTCAAACTAG) | 0.243
7 | GTGGCCACTTGGGTTCTAACCTGTTGCCT (site GTCGCCACTAG) | 0.152
8 | CACTTTGCTTGGGTTCTAACCTGTTGCCT (site AGGGAGACTGA) | 0.145
9 | TAACCTGCTTGGGTTCTAACCTGTTGCCT (site TAACCTGCTAG) | 0.889
10 | GACATTCCTTGGGTTCTAACCTGTTGCTT (site GACATTCCTAA) | 0.21
11 | CTCCTATCTTGGGTTCTAACCTGTTGCCT (site CTCCAATCTAG) | 0.238
12 | TGTCTGCCTTGGGTTCTAACCTGTTGCCT (site CGTCTGCCTAG) | 0.122
13 | CACTGATCTTGGGTTCTAACCTGTTGCCT (site CACTGCTCTAG) | 0.0175
14 | TAGCCCTCTTGGGTTCTAACCTGTTGCAA (site TAGCCCTCTTT) | 2.02
15 | CTACGTCCTTGGGTTCTAACCTGTTGCTT (site CTACGTCCTTA) | 0.0433
16 | TTAGACTCTTGGGTTCTAACCTGTTGCCT (site TTAGACTCTAG) | 2.48
17 | GAGTTTCCTTGGGTTCTAACCTGTTGCAG (site GAGCGTCCTCT) | 0.118
18 | GGGAATGCTTGGGTTCTAACCTGTTGCCT (site GGGAACGCTAG) | 0.108

Row | Sequence | recombinant barcode read abundance (log10)
19 | ACACATACTTGGGTTCTAACCTGTTGCCT (site ACACATACTAG) | 0.302
20 | CTACCACCTTGGGTTCTAACCTGTTGCCT (site CTACCAGCTAG) | 0.0722
21 | CTTCACGCTTGGGTTCTAACCTGTTGCCT (site CTTCACGCTAG) | 1.21
22 | CCAATCTCTTGGGTTCTAACCTGTTGCCT (site CGTATCTCTAG) | 0.0477
23 | GGGGCACCTTGGGTTCTAACCTGTTGCCT (site GGGGCACCTAG) | 1.15
24 | TACAGACCTTGGGTTCTAACCTGTTGCCT (site TACAGACCTAG) | 1.11
25 | AGTCATACTTGGGTTCTAACCTGTTGCCT (site AGTCAAACTAG) | 0
26 | CCGTAAACTTGGGTTCTAACCTGTTGCCT (site CCGTAAGCTAG) | 0.418
27 | CTAAAACCTTGGGTTCTAACCTGTTGCCT (site TTAAAACCTAG) | 0.218
28 | GGGAACCCTTGGGTTCTAACCTGTTGCTC (site GGGAACCCTGA) | 1.16
29 | TCGAGTACTTGGGTTCTAACCTGTTGCCT (site TCGAGTCCTAG) | 0.168
30 | CTCCCTTCTTGGGTTCTAACCTGTTGCTT (site CTCCCTTCTAA) | 0.534
31 | GCTGAGTCTTGGGTTCTAACCTGTTGCTA (site AGGCCCACTAT) | 0.0625
32 | GTGAACCCTTGGGTTCTAACCTGTTGCAG (site GTGATCCCTCT) | 0.0104
33 | TCTGGGGCTTGGGTTCTAACCTGTTGCCG (site TCTGGGGCTCG) | 1.89
34 | AGCGTTGCTTGGGTTCTAACCTGTTGCCT (site AGCTTTGCTAG) | 0.16
35 | AGGGAAGCTTGGGTTCTAACCTGTTGCCT (site AGGGCAGCTAG) | 0.385
36 | CACCACCCTTGGGTTCTAACCTGTTGCGG (site CACCACCCTCC) | 1.35

Reference: the supplement of paper PMC11208160
